Source: patent US20250295815A1, “PORPHYRIN-HYDROPORPHYRIN COMPOUNDS, COMPOSITIONS COMPRISING THE SAME AND METHODS OF USE THEREOF” (North Carolina State University, priority 2021, published 2025)

Experiments:
[1] = Dyad photophysical properties in toluene, excited at 405 nm; assay type: physicochemical; parameters: ext coeff (abs max B) / brightness (abs max): unit not given here; details: for ext coeff (405 nm) / brightness (405 nm): at 405 nm; for ext coeff (405 nm) / FWHM / QY (x405) / abs max B / abs max Qx / abs max Qy / ext coeff (abs max B) / em max: room temperature; for ext coeff (405 nm): in M-1 cm-1 (unit assumed); for FWHM: emission peak; for FWHM / QY (x405) / em max: excited at 405 nm; for QY (x405): fluorescence quantum yield; for brightness (405 nm) / brightness (abs max): molar absorption coefficient x fluorescence quantum yield; for brightness (405 nm): in M⁻¹cm⁻¹; for brightness (abs max): at abs max
Experimental: The photophysical properties of samples were tested in toluene at room temperature and excited at 405 nm.

[2] = Brightness of hydroporphyrin monomers vs. porphyrin-hydroporphyrin dyads at 405 nm excitation; assay type: physicochemical; details: for fold change: brightness of dyad vs. corresponding hydroporphyrin monomer, 405 nm; for FWHM: emission peak narrowness; for QY (x405): fluorescence quantum yield in toluene at room temperature; for ext coeff (405 nm): molar absorption coefficient at 405 nm, in M-1 cm-1 (unit assumed); for brightness (405 nm): product of molar absorption coefficient at 405 nm and fluorescence quantum yield, in M⁻¹cm⁻¹; for brightness (405 nm) / abs max B / em max: toluene, room temperature
Experimental: Brightness was calculated using an excitation wavelength of 405 nm for a hydroporphyrin monomer having an emission wavelength of approximately 660, 680, 715, or 800 nm and for a fluorescent compound including a porphyrin and a hydroporphyrin structurally similar to the hydroporphyrin monomer. Brightness was calculated as the product of the molar absorption coefficient at 405 nm and the fluorescence quantum yield in toluene at room temperature. Table 3 provides the emission wavelength of the hydroporphyrin monomer and the corresponding dyad, the brightness of the hydroporphyrin monomer excited at 405 nm, the brightness of the dyad excited at 405 nm, and the fold change in brightness of the hydroporphyrin monomer compared to the brightness of the dyad.

Structure (SMILES) | ext coeff (405 nm) [1] | FWHM [1] | QY (x405) [1] | brightness (405 nm) [1] | brightness (abs max) [1] | abs max B [1] | abs max Qx [1] | abs max Qy [1] | ext coeff (abs max B) [1] | em max [1] | fold change [2] | FWHM [2] | QY (x405) [2] | ext coeff (405 nm) [2] | brightness (405 nm) [2] | abs max B [2] | em max [2]
COC(=O)c1ccc(-c2c3nc(cc4ccc(cc5nc(cc6[nH]c2cc6C#Cc2ccc(-c6c7nc(cc8ccc([nH]8)c(-c8c(C)cc(C)cc8C)c8nc(cc9ccc6[nH]9)C=C8)C=C7)cc2)CC5(C)C)[nH]4)C=C3)cc1 [P7-C1; P6-C3] | 227,900 | 15 nm | 0.21 | 47,083 | 60,532 | 410 nm | 505 nm | 659 nm | 293,000 | 660 nm | – | – | – | – | – | – | –
COC(=O)c1ccc(-c2c3nc(cc4[nH]c(cc5nc(cc6[nH]c2cc6-c2ccc(CNC(=O)c6ccc(C7=C8C=CC(=N8)C=c8ccc9[n]8[Zn][n]8c(ccc87)C=C7C=CC(=N7)C=9)cc6)cc2)CC5(C)C)cc4-c2ccccc2)C=C3)cc1 [P2-C1, methyl ester] | 346,400 | 18 nm | 0.25 | 87,748 | 94,791 | 407 nm | 533 nm | 652 nm | 374,100 | 656 nm | 2.5 | 18 nm | 0.25 | 346,400 | 87,748 | 407 nm | 656 nm
COC(=O)c1ccc(C#Cc2cc3cc4nc(cc5[nH]c(cc6nc(c(OC)c2[nH]3)CC6(C)C)cc5C#Cc2ccc(-c3c5nc(cc6ccc(cc7nc(cc8ccc3[nH]8)C=C7)[nH]6)C=C5)cc2)CC4(C)C)cc1 [Dyad P1-BC1] | 276,800 | 21 nm | 0.23 | 64,405 | 64,405 | 405 nm | 529 nm | 760 nm | 276,800 | 765 nm | – | – | – | – | – | – | –
COC(=O)c1c(C#Cc2ccc(-c3c4nc(cc5ccc(cc6nc(cc7ccc3[nH]7)C=C6)[nH]5)C=C4)cc2)c2cc3nc(c(OC)c4[nH]c(cc5nc(cc1[nH]2)CC5(C)C)c(C#Cc1ccc(-c2c5nc(cc6ccc(cc7nc(cc8ccc2[nH]8)C=C7)[nH]6)C=C5)cc1)c4C(=O)OC)CC3(C)C [Dyad P1-BC2] | 325,400 | 31 nm | 0.19 | 60,845 | 60,845 | 405 nm | 499 nm | 795 nm | 325,400 | 804 nm | 18.6 | 31 nm | 0.19 | 325,400 | 60,845 | 405 nm | 804 nm
COC(=O)c1ccc(-c2c(C(=O)OC)c3cc4nc(cc5[nH]c(c(OC)c6nc(cc2[nH]3)C(C)(C)C6)c(C(=O)OC)c5C#Cc2ccc(C3=C5C=CC(=N5)C=c5ccc6[n]5[Zn][n]5c(ccc53)C=C3C=CC(=N3)C=6)cc2)C(C)(C)C4)cc1 [Dyad P8-BC2] | 227,600 | 29 nm | 0.20 | 46,569 | 52,298 | 408 nm | 538 nm | 769 nm | 255,600 | 777 nm | – | – | – | – | – | – | –

More lines, main results first:

ext coeff (405 nm) [1] | FWHM [1] | QY (x405) [1] | brightness (405 nm) [1] | brightness (abs max) [1] | abs max B [1] | abs max Qx [1] | abs max Qy [1] | ext coeff (abs max B) [1] | em max [1] | Structure (SMILES) | fold change [2] | FWHM [2] | QY (x405) [2] | ext coeff (405 nm) [2] | brightness (405 nm) [2] | abs max B [2] | em max [2]
241,700 | 15 nm | 0.33 | 80,872 | 88,133 | 408 nm | 534 nm | 659 nm | 263,400 | 661 nm | COC(=O)c1ccc(-c2c3nc(cc4ccc(cc5nc(cc6[nH]c2cc6C#Cc2ccc(C6=C7C=CC(=N7)C=c7ccc8[n]7[Zn][n]7c(ccc76)C=C6C=CC(=N6)C=8)cc2)CC5(C)C)[nH]4)C=C3)cc1 [P8-C2, methyl ester] | – | – | – | – | – | – | –
318,900 | – | 0.07 | 22,648 | 23,813 | 407 nm | 532 nm | 656 nm | 335,300 | 659 nm | COC(=O)c1ccc(-c2c3nc(cc4ccc(cc5nc(cc6[nH]c2cc6C#Cc2ccc(CNC(=O)c6ccc(C7=C8C=CC(=N8)C=c8ccc9[n]8[Zn][n]8c(ccc87)C=C7C=CC(=N7)C=9)cc6)cc2)CC5(C)C)[nH]4)C=C3)cc1 [Dyad P4-C3] | – | – | – | – | – | – | –
181,500 | 14 nm | 0.04 | 8,055 | 11,570 | 414 nm | 540 nm | 607 nm | 260,700 | 608 nm | COC(=O)c1ccc(C2=c3ccc4[n]3[Zn][n]3c(ccc3C(c3ccc(C#Cc5ccc(C6=c7ccc8[n]7[Zn][n]7c(ccc7C=C7N=C(C=8)CC7(C)C)C=C7C=CC6=N7)cc5)cc3)=C3C=CC(=N3)C=4)C=C3C=CC2=N3)cc1 [P9-C4, methyl ester] | – | – | – | – | – | – | –
